Numbered stars: 1 amine (or outer) side, 2 acyl side, 3 side chain; on linkers, the order of the positions; unused ones are H or OH. Square brackets hold non-standard residues; d marks the D form. Peptide text beside a SMILES is read from it. * marks the point of attachment. Phe(3-CF3) = N[C@@H](Cc1cccc(C(F)(F)F)c1)C(=O)O; X1 = CCCC(N[*:1])C(=O)C(=O)[*:2]; Chg = N[C@H](C(=O)O)C1CCCCC1; Phg = N[C@H](C(=O)O)c1ccccc1; Boc = CC(C)(C)OC(=O)*

For the assay, the target named is NS3 (Hepatitis C virus, UniProt A3EZJ3). Put plainly: Binding affinity for HCV NS3 protease measured by HCV continuous assay. Also on record: species or system Hepacivirus hominis.
NS3, sequence (A3EZJ3 whole entry): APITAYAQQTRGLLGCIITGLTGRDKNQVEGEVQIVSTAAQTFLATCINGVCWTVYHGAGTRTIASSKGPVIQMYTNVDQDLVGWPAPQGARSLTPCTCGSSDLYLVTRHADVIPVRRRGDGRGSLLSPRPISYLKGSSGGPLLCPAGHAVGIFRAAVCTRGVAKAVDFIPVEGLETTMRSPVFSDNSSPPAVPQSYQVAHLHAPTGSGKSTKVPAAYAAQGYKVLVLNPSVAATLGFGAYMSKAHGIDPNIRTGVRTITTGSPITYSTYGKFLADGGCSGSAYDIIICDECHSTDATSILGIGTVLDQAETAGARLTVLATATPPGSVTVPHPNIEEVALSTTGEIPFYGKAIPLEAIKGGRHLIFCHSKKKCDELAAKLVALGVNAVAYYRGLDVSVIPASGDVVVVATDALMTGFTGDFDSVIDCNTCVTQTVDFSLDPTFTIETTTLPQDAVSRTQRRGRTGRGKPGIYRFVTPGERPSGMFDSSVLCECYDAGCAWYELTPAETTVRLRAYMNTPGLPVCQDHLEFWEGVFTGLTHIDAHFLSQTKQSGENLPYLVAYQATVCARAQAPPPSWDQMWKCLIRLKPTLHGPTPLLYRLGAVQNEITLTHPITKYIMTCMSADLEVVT
As usually defined, the Ki is the dissociation constant of the complex between target and ligand, obtained from inhibition or displacement. In turn, `CCCC(NC(=O)[C@@H]1Cc2cccc(c2)OCCCCCCC(=O)N[C@@H](C2CCCCC2)C(=O)N1)C(=O)C(=O)NCC(=O)N[C@H](C(=O)NC)c1ccccc1` (some centres not stated) showed an inhibition constant (Ki) of 170 nM.
Molecule `CCCC(NC(=O)[C@@H]1Cc2cccc(c2)OCCCCCCC(=O)N[C@@H](C2CCCCC2)C(=O)N1)C(=O)C(=O)NCC(=O)N[C@H](C(=O)O)c1ccccc1` (some centres not stated) showed a Ki of 160 nM.
The molecule `CCCC(NC(=O)[C@@H]1Cc2cccc(c2)OCCCCCC(=O)N[C@@H](C2CCCCC2)C(=O)N1)C(=O)C(=O)NCC(=O)N[C@H](C(=O)O)c1ccccc1` (some centres not stated) gave a Ki of 1200 nM.
Take `CCCC(NC(=O)[C@@H]1Cc2cccc(c2)OCCCCCCC(=O)N[C@@H](C2CCCCC2)C(=O)N1)C(=O)C(=O)NCC(=O)N[C@H](C(=O)OC(C)(C)C)c1ccccc1` (some centres not stated): affinity was put at a Ki of 5500 nM.
The value for `CCCC(NC(=O)[C@H](Cc1cccc(C(F)(F)F)c1)NC(=O)[C@@H](NC(=O)OC(C)(C)C)C1CCCCC1)C(=O)C(=O)NCC(=O)N[C@H](C(N)=O)c1ccccc1` (some centres not stated) (Boc-[Chg][Phe(3-CF3)][X1]G[Phg]-NH2) was 8000 nM.
To `CCCC(NC(=O)[C@@H]1Cc2cccc(c2)OCCCCCC(=O)N[C@@H](C2CCCCC2)C(=O)N1)C(=O)C(=O)NCC(=O)N[C@H](C(=O)OC(C)(C)C)c1ccccc1` (some centres not stated) belongs greater than 8900 nM; to `CCCC(NC(=O)[C@@H]1Cc2cccc(c2)OCCCCCCC(=O)N[C@@H](C2CCCCC2)C(=O)N1)C(=O)C(=O)NCC(=O)N[C@H](C(=O)N(C)C)c1ccccc1` (some centres not stated), 310 nM.

The values are drawn from ChEMBL document CHEMBL1141101, “Design, synthesis, and biological activity of m-tyrosine-based 16- and 17-membered macrocyclic inhibitors of hepatitis C virus NS3 serine protease” (J Med Chem, 2005).
